In US8796289B2 (AbbVie Inc., priority 2011, dated 2014):

These compounds were tested against GST-tagged-Wee1 kinase (Homo sapiens, UniProt P30291) (assay: Wee1 time-resolved fluorescence equilibrium binding assay (displacement of Oregon Green-labeled ATP-competitive kinase probe)).
Experimental: Wee1 kinase was assayed using a time-resolved fluorescence equilibrium binding assay monitoring displacement of a rapidly reversible Oregon Green-labeled ATP-competitive kinase probe (N-(2-(2-(2-(4-(4-(5-chloro-4-(2-(1-hydroxycyclobutyl)thiazol-5-yl)-1H-pyrrolo[2,3-b]pyridin-2-yl)phenyl)piperazin-1-yl)ethoxy)ethoxy)ethyl)-2′,7′-difluoro-3′,6′-dihydroxy-3-oxo-3H-spiro[isobenzofuran-1,9′-xanthene]-5-carboxamide) by competitive Wee1 inhibitors.

Chain of GST-tagged-Wee1 kinase (P30291 whole entry): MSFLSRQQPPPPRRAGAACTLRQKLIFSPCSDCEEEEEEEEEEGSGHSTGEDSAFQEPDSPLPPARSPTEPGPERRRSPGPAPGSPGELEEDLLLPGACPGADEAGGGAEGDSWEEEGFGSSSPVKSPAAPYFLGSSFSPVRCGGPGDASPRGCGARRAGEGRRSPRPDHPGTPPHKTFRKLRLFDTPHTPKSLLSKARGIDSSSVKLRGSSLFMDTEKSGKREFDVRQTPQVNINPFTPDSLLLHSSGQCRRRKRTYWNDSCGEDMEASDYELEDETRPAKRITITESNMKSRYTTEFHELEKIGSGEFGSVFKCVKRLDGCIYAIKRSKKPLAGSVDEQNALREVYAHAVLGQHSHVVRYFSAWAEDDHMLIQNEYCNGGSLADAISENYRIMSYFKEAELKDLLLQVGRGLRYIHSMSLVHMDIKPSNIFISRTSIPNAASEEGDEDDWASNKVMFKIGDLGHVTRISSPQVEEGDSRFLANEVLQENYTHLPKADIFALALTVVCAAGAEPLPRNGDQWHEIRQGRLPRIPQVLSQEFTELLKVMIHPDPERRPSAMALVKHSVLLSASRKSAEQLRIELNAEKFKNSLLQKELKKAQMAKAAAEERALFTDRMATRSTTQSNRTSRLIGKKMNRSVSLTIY

Ki [nM]	Structure (SMILES)
0.2	O=c1c2cnc(Nc3ccc4c(c3)CNCC43CC3)nc2c(-c2ccccn2)nn1-c1c(Cl)cccc1Cl [Example 221, 6-(2,6-dichlorophenyl)-2-(2′,3′-dihydro-1′H-spiro[cyclopropane-1,4′-isoquinolin]-7′-ylamino)-8-(pyridin-2-yl)pyrimido[4,5-d]pyridazin-5(6H)-one]
0.36	O=c1c2cnc(Nc3ccc(N4CCNCC4)cc3)nc2c(-c2ccccn2)nn1-c1c(Cl)cccc1Cl [Example 284, 6-(2,6-dichlorophenyl)-2-{[4-(piperazin-1-yl)phenyl]amino}-8-(pyridin-2-yl)pyrimido[4,5-d]pyridazin-5(6H)-one]
1	CCc1nn(-c2c(Cl)cccc2Cl)c(=O)c2cnc(Nc3ccc(N4CCNCC4)cc3)nc12 [Example 409, 6-(2,6-dichlorophenyl)-8-ethyl-2-{[4-(piperazin-1-yl)phenyl]amino}pyrimido[4,5-d]pyridazin-5(6H)-one]
1	CN1Cc2cc(Nc3ncc4c(=O)n(-c5c(Cl)cccc5Cl)nc(C(F)F)c4n3)ccc2C2(CC2)C1 [Example 411, 6-(2,6-dichlorophenyl)-8-(difluoromethyl)-2-[(2′-methyl-2′,3′-dihydro-1′H-spiro[cyclopropane-1,4′-isoquinolin]-7′-yl)amino]pyrimido[4,5-d]pyridazin-5(6H)-one]
0.29	O=c1c2cnc(Nc3ccc(C4CCCNC4)cc3)nc2c(C(F)F)nn1-c1c(Cl)cccc1Cl (stereo not shown) [Example 479, 6-(2,6-dichlorophenyl)-8-(difluoromethyl)-2-{[4-(piperidin-3-yl)phenyl]amino}pyrimido[4,5-d]pyridazin-5(6H)-one]
> 3140	C=CCn1nc(-c2ccccc2)c2nc(Nc3ccc(S(=O)(=O)N4CCOCC4)cc3)ncc2c1=O [Example 110, 6-allyl-2-{[4-(morpholin-4-ylsulfonyl)phenyl]amino}-8-phenylpyrimido[4,5-d]pyridazin-5(6H)-one]
5	Cc1cccc(-c2nn(-c3ccccc3)c(=O)c3cnc(Nc4ccc(N5CCN(C)CC5)cc4)nc23)c1 [Example 50, 8-(3-methylphenyl)-2-{[4-(4-methylpiperazin-1-yl)phenyl]amino}-6-phenylpyrimido[4,5-d]pyridazin-5(6H)-one]
0.23	Cc1nn(-c2c(Cl)cccc2Cl)c(=O)c2cnc(Nc3ccc(C4CCNCC4)cc3)nc12 [Example 458, 6-(2,6-dichlorophenyl)-8-methyl-2-{[4-(piperidin-4-yl)phenyl]amino}pyrimido[4,5-d]pyridazin-5(6H)-one]
14	CN1CCN(c2ccc(Nc3ncc4c(=O)n(-c5ccccc5)nc(-c5cccc(Br)c5)c4n3)cc2)CC1 [Example 67, 8-(3-bromophenyl)-2-{[4-(4-methylpiperazin-1-yl)phenyl]amino}-6-phenylpyrimido[4,5-d]pyridazin-5(6H)-one]
57	C=CCn1nc(-c2ccccc2)c2nc(Nc3ccc(N4CCCC4=O)cc3)ncc2c1=O [Example 142, 6-allyl-2-{[4-(2-oxopyrrolidin-1-yl)phenyl]amino}-8-phenylpyrimido[4,5-d]pyridazin-5(6H)-one]
1	Cc1nn(-c2c(F)cccc2Cl)c(=O)c2cnc(Nc3ccc4c(c3)CN(C)CC4(C)C)nc12 [Example 311, 6-(2-chloro-6-fluorophenyl)-8-methyl-2-[(2,4,4-trimethyl-1,2,3,4-tetrahydroisoquinolin-7-yl)amino]pyrimido[4,5-d]pyridazin-5(6H)-one]
2	CN1CCN(c2ccc(Nc3ncc4c(=O)n(-c5ccccc5Cl)nc(-c5ccncn5)c4n3)cc2)CC1 [Example 178, 6-(2-chlorophenyl)-2-{[4-(4-methylpiperazin-1-yl)phenyl]amino}-8-(pyrimidin-4-yl)pyrimido[4,5-d]pyridazin-5(6H)-one]
0.22	CC(C)n1cc(-c2nn(-c3c(Cl)cccc3Cl)c(=O)c3cnc(Nc4ccc5c(c4)CNCC54CC4)nc23)cn1 [Example 337, 6-(2,6-dichlorophenyl)-2-(2′,3′-dihydro-1′H-spiro[cyclopropane-1,4′-isoquinolin]-7′-ylamino)-8-[1-(propan-2-yl)-1H-pyrazol-4-yl]pyrimido[4,5-d]pyridazin-5(6H)-one]
> 3140	O=c1c2cnc(Nc3ccc(S(=O)(=O)N4CCOCC4)cc3)nc2c(-c2cccs2)nn1-c1ccccc1Cl [Example 165, 6-(2-chlorophenyl)-2-{[4-(morpholin-4-ylsulfonyl)phenyl]amino}-8-(2-thienyl)pyrimido[4,5-d]pyridazin-5(6H)-one]
8.4	O=c1c2cnc(Nc3ccc(N4CCNCC4)cc3)nc2c(-c2ccccn2)nn1-c1ccccn1 [Example 285, 2-{[4-(piperazin-1-yl)phenyl]amino}-6,8-di(pyridin-2-yl)pyrimido[4,5-d]pyridazin-5(6H)-one]
0.31	CCc1nn(-c2c(Cl)cccc2Cl)c(=O)c2cnc(Nc3ccc4c(c3)CN(C)C4)nc12 [Example 494, 6-(2,6-dichlorophenyl)-8-ethyl-2-[(2-methyl-2,3-dihydro-1H-isoindol-5-yl)amino]pyrimido[4,5-d]pyridazin-5(6H)-one]

Ki [nM]	Structure (SMILES)
0.33	Cc1nn(-c2c(Cl)cccc2Cl)c(=O)c2cnc(Nc3ccc(N4CCN(C5COC5)CC4)cc3)nc12 [Example 445, 6-(2,6-dichlorophenyl)-8-methyl-2-({4-[4-(oxetan-3-yl)piperazin-1-yl]phenyl}amino)pyrimido[4,5-d]pyridazin-5(6H)-one]
0.01	CN1CCN(c2ccc(Nc3ncc4c(=O)n(-c5c(Cl)cccc5Cl)nc(-c5cccc(C(=O)O)c5)c4n3)cc2)CC1 [Example 190, 3-[6-(2,6-dichlorophenyl)-2-{[4-(4-methylpiperazin-1-yl)phenyl]amino}-5-oxo-5,6-dihydropyrimido[4,5-d]pyridazin-8-yl]benzoic acid]
0.5	CN1CCN(c2ccc(Nc3ncc4c(=O)n(-c5ccccc5Cl)nc(-c5ccoc5)c4n3)cc2)CC1 [Example 94, 6-(2-chlorophenyl)-8-(3-furyl)-2-{[4-(4-methylpiperazin-1-yl)phenyl]amino}pyrimido[4,5-d]pyridazin-5(6H)-one]
22	C=CCn1nc(-c2ccco2)c2nc(Nc3ccc(CN(C)C)cc3)ncc2c1=O [Example 137, 6-allyl-2-({4-[(dimethylamino)methyl]phenyl}amino)-8-(2-furyl)pyrimido[4,5-d]pyridazin-5(6H)-one]
0.1	CN1CCN(c2ccc(Nc3ncc4c(=O)n(-c5c(Cl)cccc5Cl)nc(-c5cc[nH]n5)c4n3)cc2)CC1 [Example 231, 6-(2,6-dichlorophenyl)-2-{[4-(4-methylpiperazin-1-yl)phenyl]amino}-8-(1H-pyrazol-3-yl)pyrimido[4,5-d]pyridazin-5(6H)-one]
50	CC1(C)CNCc2cc(Nc3ncc4c(=O)n(-c5cccc6ccccc56)nc(-c5ccccn5)c4n3)ccc21 [Example 306, 2-[(4,4-dimethyl-1,2,3,4-tetrahydroisoquinolin-7-yl)amino]-6-(naphthalen-1-yl)-8-(pyridin-2-yl)pyrimido[4,5-d]pyridazin-5(6H)-one]
0.03	CN(C)Cc1cccc(-c2nn(-c3c(Cl)cccc3Cl)c(=O)c3cnc(Nc4ccc(N5CCN(C)CC5)cc4)nc23)c1 [Example 184, 6-(2,6-dichlorophenyl)-8-{3-[(dimethylamino)methyl]phenyl}-2-{[4-(4-methylpiperazin-1-yl)phenyl]amino}pyrimido[4,5-d]pyridazin-5(6H)-one]
0.3	CNCCn1ccc(-c2nn(-c3c(Cl)cccc3Cl)c(=O)c3cnc(Nc4ccc(N5CCN(C)CC5)cc4)nc23)n1 [Example 261, 6-(2,6-dichlorophenyl)-8-{1-[2-(methylamino)ethyl]-1H-pyrazol-3-yl}-2-{[4-(4-methylpiperazin-1-yl)phenyl]amino}pyrimido[4,5-d]pyridazin-5(6H)-one]
0.28	Cc1nn(-c2c(Cl)cccc2Cl)c(=O)c2cnc(Nc3ccc(N4C[C@H]5C[C@@H]4CN5)cc3)nc12 [Example 457, 2-({4-[(1R,4R)-2,5-diazabicyclo[2.2.1]hept-2-yl]phenyl}amino)-6-(2,6-dichlorophenyl)-8-methylpyrimido[4,5-d]pyridazin-5(6H)-one]
9.4	O=c1c2cnc(Nc3ccc(N4CCNCC4)cc3)nc2c(-c2ccccn2)nn1-c1cccc2ccccc12 [Example 286, 6-(naphthalen-1-yl)-2-{[4-(piperazin-1-yl)phenyl]amino}-8-(pyridin-2-yl)pyrimido[4,5-d]pyridazin-5(6H)-one]
629	CC1(C)CNCc2cc(Nc3ncc4c(=O)n(C5CCCCC5)nc(-c5ccccn5)c4n3)ccc21 [Example 294, 6-cyclohexyl-2-[(4,4-dimethyl-1,2,3,4-tetrahydroisoquinolin-7-yl)amino]-8-(pyridin-2-yl)pyrimido[4,5-d]pyridazin-5(6H)-one]
2	C=CCn1nc(-c2ccco2)c2nc(Nc3ccc4c(c3)CN(C)CC43CC3)ncc2c1=O [Example 144, 6-allyl-8-(2-furyl)-2-[(2′-methyl-2′,3′-dihydro-1′H-spiro[cyclopropane-1,4′-isoquinolin]-7′-yl)amino]pyrimido[4,5-d]pyridazin-5(6H)-one]
0.2	O=c1c2cnc(Nc3ccc4c(c3)CNCC4)nc2c(-c2cnccn2)nn1-c1c(Cl)cccc1Cl [Example 251, 6-(2,6-dichlorophenyl)-8-(pyrazin-2-yl)-2-(1,2,3,4-tetrahydroisoquinolin-7-ylamino)pyrimido[4,5-d]pyridazin-5(6H)-one]
4	Cc1ccccc1-n1nc(-c2cccc(Br)c2)c2nc(Nc3ccc(N4CCN(C)CC4)cc3)ncc2c1=O [Example 66, 8-(3-bromophenyl)-6-(2-methylphenyl)-2-{[4-(4-methylpiperazin-1-yl)phenyl]amino}pyrimido[4,5-d]pyridazin-5(6H)-one]
0.63	CCc1nn(-c2c(Cl)cccc2Cl)c(=O)c2cnc(Nc3ccc(N4CCCN(C)CC4)c(C)c3)nc12 [Example 469, 6-(2,6-dichlorophenyl)-8-ethyl-2-{[3-methyl-4-(4-methyl-1,4-diazepan-1-yl)phenyl]amino}pyrimido[4,5-d]pyridazin-5(6H)-one]
